Experimental data published in patent US20260216108A1, “PHARMACEUTICAL COMPOSITION CONTAINING A MITOPHAGY INDUCER” (HANGZHOU PHECDAMED CO., LTD., priority 2023, published 2026).

How the values were obtained:
Type in all cases: physicochemical
[1] = Compatibility test of API and auxiliary materials: appearance; details: opened
From the text: The experimental steps are as follows:
1. Taking out the sample according to the sampling time point set in the raw material and auxiliary material compatibility scheme (see Table 1).
2. Recording the appearance of the sample taken out. Appearance abnormalities include: (1) caking, (2) liquefaction, (3) discoloration.
(§1) The commonly used auxiliary materials for oral solid preparations are selected to mix with TJ0113 raw material in different proportions, placed under different conditions, and taken out at different time points respectively to judge the compatibility of the raw and auxiliary materials by using appearance, hygroscopic weight gain, content and relevant substances as indicators. According to the auxiliary material manual, the auxiliary materials used are commonly used auxiliary materials for oral solid preparations, and have been included in the current edition of the Chinese Pharmacopoeia, each auxiliary material has a stable nature. In order to objectively evaluate the compatibility of raw material and auxiliary materials used, the compatibility test was conducted on the raw material and each auxiliary material.
The ratio of the raw and auxiliary materials is set according to the “Basic Technical Guidance Principles for Research on Chemical Drug Preparations” and the preparation specifications, the auxiliary materials with a larger amount (such as lactose, microcrystalline cellulose) are mixed according to the ratio of main drug:diluent=1:5; the auxiliary materials with a moderate amount (such as croscarmellose sodium) are mixed according to the ratio of main drug:disintegrant=1:1; the auxiliary materials with a smaller amount (such as magnesium stearate) are mixed according to the ratio of main drug:lubricant=10:1. The manufacturer information and the ratio of raw and auxiliary materials for the compatibility experiment are shown in Table 1 below: […]

[2] = Compatibility test of API and auxiliary materials: hygroscopic weight gain; details: opened
From the text: 3. Detecting the hygroscopic weight gain of the sample.
as §1
The ratio of the raw and auxiliary materials is set according to the “Basic Technical Guidance Principles for Research on Chemical Drug Preparations” and the preparation specifications, the auxiliary materials with a larger amount (such as lactose, microcrystalline cellulose) are mixed according to the ratio of main drug:diluent=1:5; the auxiliary materials with a moderate amount (such as croscarmellose sodium) are mixed according to the ratio of main drug:disintegrant=1:1; the auxiliary materials with a smaller amount (such as magnesium stearate) are mixed according to the ratio of main drug:lubricant=10:1. The manufacturer information and the ratio of raw and auxiliary materials for the compatibility experiment are shown in Table 1 below:
(§2) Placing the samples under experimental conditions of high temperature (60° C.), high humidity (92.5% RH), acceleration (40° C./75% RH) and illumination (visible light 5500 Lux±500 Lux, near ultraviolet light 85 μw/cm2), […] Submitting the samples for relevant indicator testing (test items include appearance, hygroscopic weight gain, content and relevant substances), and comparing the test results with the control samples (raw material).

[3] = Compatibility test of API and auxiliary materials: content by HPLC; details: for Content: in % (unit assumed)
Description: (§3) 4. Using HPLC method to detect the content of the sample and relevant substances.
(§4) The parameters of the HPLC method for the detection of the content and relevant substances are detailed in Table 2 below.
as §2

[4] = Compatibility test of API and auxiliary materials: relevant substances (impurities) by HPLC; details: opened
Description: as §3, §4, §2

Appearance ([1]; 40° C./75% RH, 30 d): gray powder | Appearance ([1]; 92.5% RH, 30 d): gray powder | Hygroscopic weight gain ([2]; 40° C./75% RH, 10 d): −3.6 | Hygroscopic weight gain ([2]; 40° C./75% RH, 30 d): −4.2 | Hygroscopic weight gain ([2]; 92.5% RH, 10 d): 5.5 | Content ([3]; 40° C./75% RH (opened), 10 d): 98.9 | Content ([3]; 40° C./75% RH (opened), 30 d): 97.3 | Content ([3]; 60° C. (opened), 10 d): 100.1 | Content ([3]; 60° C. (opened), 30 d): 101.4 | Change of content ([3]; 60° C., 92.5% RH, 40° C./75% RH opened, 10 days illumination): did not change significantly | Content ([3]; 92.5% RH (opened), 10 d): 97.8 | Content ([3]; 92.5% RH (opened), 30 d): 99.9 | Content ([3]; Illumination (opened), 10 d): 100.8 | Content ([3]; Initial): 99.7 | % Impurities RRT0.37 ([4]; 40° C./75% RH, 0 d): <0.05% | % Impurities RRT0.46 ([4]; 40° C./75% RH, 0 d): <0.05% | % Impurities RRT0.89 ([4]; 40° C./75% RH, 0 d): 0.08% | % Impurities RRT1.10 ([4]; 40° C./75% RH, 0 d): <0.05% | % Impurities RRT1.16 ([4]; 40° C./75% RH, 0 d): 0.88% | % Impurities RRT1.20 ([4]; 40° C./75% RH, 0 d): 0.09% | % Impurities RRT1.24 ([4]; 40° C./75% RH, 0 d): <0.05% | % Impurities RRT1.29 ([4]; 40° C./75% RH, 0 d): 0.14% | % Impurities RRT1.33 ([4]; 40° C./75% RH, 0 d): 0.10% | % Impurities RRT1.37 ([4]; 40° C./75% RH, 0 d): 0.07% | % Impurities RRT1.41 ([4]; 40° C./75% RH, 0 d): <0.05% | % Impurities RRT1.43 ([4]; 40° C./75% RH, 0 d): <0.05% | % Impurities RRT1.73 ([4]; 40° C./75% RH, 0 d): <0.05% | % Impurities RRT1.74 ([4]; 40° C./75% RH, 0 d): 0.05% | % Impurities Total ([4]; 40° C./75% RH, 0 d): 1.41% | % Impurities RRT0.37 ([4]; 40° C./75% RH, 10 d): <0.05% | % Impurities RRT0.46 ([4]; 40° C./75% RH, 10 d): 0.11% | % Impurities RRT0.89 ([4]; 40° C./75% RH, 10 d): 0.06% | % Impurities RRT1.10 ([4]; 40° C./75% RH, 10 d): <0.05% | % Impurities RRT1.16 ([4]; 40° C./75% RH, 10 d): 1.23% | % Impurities RRT1.20 ([4]; 40° C./75% RH, 10 d): 0.06% | % Impurities RRT1.24 ([4]; 40° C./75% RH, 10 d): <0.05% | % Impurities RRT1.29 ([4]; 40° C./75% RH, 10 d): 0.08% | % Impurities RRT1.33 ([4]; 40° C./75% RH, 10 d): 0.07% | % Impurities RRT1.37 ([4]; 40° C./75% RH, 10 d): 0.05% | % Impurities RRT1.41 ([4]; 40° C./75% RH, 10 d): 0.09% | % Impurities RRT1.43 ([4]; 40° C./75% RH, 10 d): 0.07% | % Impurities RRT1.54 ([4]; 40° C./75% RH, 10 d): 0.06% | % Impurities RRT1.63 ([4]; 40° C./75% RH, 10 d): 0.21% | % Impurities RRT1.65/1.70 ([4]; 40° C./75% RH, 10 d): <0.05% | % Impurities RRT1.73 ([4]; 40° C./75% RH, 10 d): 0.59% | % Impurities RRT1.74 ([4]; 40° C./75% RH, 10 d): 0.06% | % Impurities Total ([4]; 40° C./75% RH, 10 d): 2.74% | % Impurities RRT0.46 ([4]; 40° C./75% RH, 30 d): 0.20% | % Impurities RRT0.89 ([4]; 40° C./75% RH, 30 d): 0.08% | % Impurities RRT1.10 ([4]; 40° C./75% RH, 30 d): <0.05% | % Impurities RRT1.16 ([4]; 40° C./75% RH, 30 d): 1.18% | % Impurities RRT1.20 ([4]; 40° C./75% RH, 30 d): 0.05% | % Impurities RRT1.24 ([4]; 40° C./75% RH, 30 d): <0.05% | % Impurities RRT1.29 ([4]; 40° C./75% RH, 30 d): 0.14% | % Impurities RRT1.33 ([4]; 40° C./75% RH, 30 d): 0.07% | % Impurities RRT1.37 ([4]; 40° C./75% RH, 30 d): 0.08% | % Impurities RRT1.41 ([4]; 40° C./75% RH, 30 d): 0.08% | % Impurities RRT1.43 ([4]; 40° C./75% RH, 30 d): 0.07% | % Impurities RRT1.54 ([4]; 40° C./75% RH, 30 d): <0.05% | % Impurities RRT1.63 ([4]; 40° C./75% RH, 30 d): 0.24% | % Impurities RRT1.65/1.70 ([4]; 40° C./75% RH, 30 d): <0.05% | % Impurities RRT1.73 ([4]; 40° C./75% RH, 30 d): 0.74% | % Impurities RRT1.74 ([4]; 40° C./75% RH, 30 d): 0.08% | % Impurities Total ([4]; 40° C./75% RH, 30 d): 3.01% | % Impurities RRT0.46 ([4]; 60° C., 0 d): <0.05% | % Impurities RRT0.89 ([4]; 60° C., 0 d): 0.08% | % Impurities RRT1.16 ([4]; 60° C., 0 d): 0.88% | % Impurities RRT1.20 ([4]; 60° C., 0 d): 0.09% | % Impurities RRT1.29 ([4]; 60° C., 0 d): 0.14% | % Impurities RRT1.33 ([4]; 60° C., 0 d): 0.10% | % Impurities RRT1.37 ([4]; 60° C., 0 d): 0.07% | % Impurities RRT1.41 ([4]; 60° C., 0 d): <0.05% | % Impurities RRT1.73 ([4]; 60° C., 0 d): <0.05% | % Impurities RRT1.74 ([4]; 60° C., 0 d): 0.05% | % Impurities Total ([4]; 60° C., 0 d): 1.41% | % Impurities RRT0.46 ([4]; 60° C., 10 d): <0.05% | % Impurities RRT0.89 ([4]; 60° C., 10 d): 0.08% | % Impurities RRT1.16 ([4]; 60° C., 10 d): 0.87% | % Impurities RRT1.20 ([4]; 60° C., 10 d): 0.07% | % Impurities RRT1.29 ([4]; 60° C., 10 d): 0.17% | % Impurities RRT1.33 ([4]; 60° C., 10 d): 0.08% | % Impurities RRT1.37 ([4]; 60° C., 10 d): 0.06% | % Impurities RRT1.41 ([4]; 60° C., 10 d): <0.05% | % Impurities RRT1.73 ([4]; 60° C., 10 d): <0.05% | % Impurities RRT1.74 ([4]; 60° C., 10 d): 0.07% | % Impurities Total ([4]; 60° C., 10 d): 1.40%
Compound: O=C(O)C[S+]([O-])c1cc(NS(=O)(=O)c2ccc(Br)cc2)c2ccccc2c1O (stereo not drawn) [API]
Appearance ([1]; illumination, 30 days): turned into red, and their lower layers did not change color
